Data set [1] deals with caspases-3/7, -8, and -9 in U-937 cells. Description: Caspase activity in lysates of treated cells (colorimetric tetrapeptide substrates). To be noted: U-937, 10 µM, 24 h. Type of data set: cell-based, human. The protocol:
Caspase activity was determined by measuring proteolytic cleavage of specific chromogenic substrates as previously described. Briefly, cells were treated with the specified guanidines for 24 h, harvested by centrifugation (1000× g for 5 min at 4 °C), washed twice with PBS, resuspended in lysis buffer (50 mM HEPES, pH 7.4, 0.1 mM EDTA, 1 mM dithiothreitol, and 0.1% Chaps), spun (17,000× g for 10 min at 4 °C) and the supernatants were normalized by protein concentration and used to determine enzyme activity. The net increase in absorbance at 405 nm after incubation at 37 °C was indicative of caspase activity. The colorimetric substrates were DEVD-pNA (for caspase-3 like protease activity), IETD-pNA (for caspase-8 activity), and LEHD-pNA (for caspase-9 activity).

Data set [2] relates to U-937 cells. As to the kind of experiment: MTT cytotoxicity assay, U-937. Format: cell-based. The conditions noted are these: Homo sapiens, U-937, 72 h, means ± SEM. From the text: (§1) U-937, HL-60, MOLT-3, NALM-6, and SK-MEL-1 cells were from DSMZ (German Collection of Microorganisms and Cell Cultures, Braunschweig, Germany). U-937/Bcl-2 cells were kindly provided by Dr. Jacqueline Bréard (INSERM U749, Faculté de Pharmacie Paris-Sud, Châtenay-Malabry, France). The U-937 is a pro-monocytic, human promyelocytic leukemia cell line that was isolated from a histiocytic lymphoma. HL-60 is a human acute myeloid leukemia cell line. MOLT-3 is a human acute lymphoblastic leukemia cell line. NALM-6 is a human B cell precursor leukemia. SK-MEL-1 is a human melanoma cell line growing singly or in clumps (occasional giant, polynucleated cell) in suspension. Cells were cultured in RPMI 1640 medium containing 10% (v/v) heat-inactivated fetal bovine serum, 100 μg/mL streptomycin, and 100 U/mL penicillin, incubated at 37 °C in a humidified atmosphere containing 5% CO2 as described. The doubling times of the cell lines were 24 h in HL-60, 30 h in U-937, U-937/Bcl-2, 40 h in MOLT-3 and NALM-6, and several days in SK-MEL-1 cells. Human peripheral blood mononuclear cells (PBMC) were isolated from heparin-anticoagulated blood of healthy volunteers by centrifugation with Ficoll-Paque Plus (GE Healthcare Bio-Sciences AB, Uppsala, Sweden). PBMC were also stimulated with phytohemagglutinin (2 µg/mL) for 48 h before the experimental treatment. The trypan blue exclusion method was used for counting the cells by a hemocytometer with 95% viability in all the experiments. Compounds were dissolved in dimethyl sulfoxide (DMSO) and kept under dark conditions at 25 °C. […] The cytotoxicity of the synthetic compounds was evaluated by colorimetric 3-(4,5-dimethyl-2-thiazolyl-)-2,5-diphenyl-2H-tetrazolium bromide (MTT) assay as previously described. Briefly, cells (5000 per well) were incubated with increasing concentrations of compounds for 72 h into a 96-well plate. Then, the supernatants were removed and 0.5 mg/mL MTT was added and incubated for 4 h at 37 °C. Sodium dodecyl sulfate (10% w/v) in 0.05 M HCl was added to solubilize the reaction products and the absorbance was measured at 570 nm with a reference wavelength of […] using an ELISA reader (Bio-Rad, Hercules, CA, USA). The IC50 values (concentrations inducing a 50% inhibition of cell viability) were determined graphically for each experiment by a nonlinear regression using the curve fitting routine implemented within the software Prism 5.0 (GraphPad, La Jolla, CA, USA).
On the technique in general: Tetrazolium dyes change colour on reduction, which living cells bring about.

Data set [3] deals with human peripheral blood mononuclear cells (PBMC). As to the kind of experiment: Cell viability of quiescent and PHA-activated PBMC. Format: cell-based. The conditions noted are these: up to 10 µM, 24 h. The source says: (§2) U-937, HL-60, MOLT-3, NALM-6, and SK-MEL-1 cells were from DSMZ (German Collection of Microorganisms and Cell Cultures, Braunschweig, Germany). U-937/Bcl-2 cells were kindly provided by Dr. Jacqueline Bréard (INSERM U749, Faculté de Pharmacie Paris-Sud, Châtenay-Malabry, France). The U-937 is a pro-monocytic, human promyelocytic leukemia cell line that was isolated from a histiocytic lymphoma. HL-60 is a human acute myeloid leukemia cell line. MOLT-3 is a human acute lymphoblastic leukemia cell line. NALM-6 is a human B cell precursor leukemia. SK-MEL-1 is a human melanoma cell line growing singly or in clumps (occasional giant, polynucleated cell) in suspension. […] The cytotoxicity of the synthetic compounds was evaluated by colorimetric 3-(4,5-dimethyl-2-thiazolyl-)-2,5-diphenyl-2H-tetrazolium bromide (MTT) assay as previously described. […] Sodium dodecyl sulfate (10% w/v) in 0.05 M HCl was added to solubilize the reaction products and the absorbance was measured at 570 nm with a reference wavelength of […] using an ELISA reader (Bio-Rad, Hercules, CA, USA). […]
Figure 2 (a) Dose-response study of hybrid chalcone–guanidines on human U-937 leukemia cell viability. Cells were cultured in the presence of increasing concentrations of selected guanidines for 72 h, and thereafter cell viability was determined by the MTT assay. […]

Data set [4] deals with HL-60 cells. As to the kind of experiment: MTT cytotoxicity assay, HL-60. Format: cell-based. The conditions noted are these: Homo sapiens, HL-60, 72 h, means ± SEM.
Description: as §1

The subject of data set [5] is six human cancer cell lines. Description: MTT cytotoxicity assay, all cell lines assayed (summary statements). Format: cell-based. The conditions noted are these: Homo sapiens; range over the six cell lines, 72 h.
Description: as §2, with “suspension. Cells were cultured in RPMI 1640 medium containing 10% (v/v) heat-inactivated fetal bovine serum, 100 μg/mL streptomycin, and 100 U/mL penicillin, incubated at 37 °C in a humidified atmosphere containing 5% CO2 as described.” for “suspension.”

As a reminder, the IC50 is the concentration needed to halve the response being measured. High values mean a need for much substance, low ones inhibition by little substance. For the molecule `Cc1ccc(S(=O)(=O)NC(=Nc2ccc(/C=C/C(=O)c3c(O)cccc3OCc3ccccc3)cc2)N2CCN(C)CC2)cc1` [Compound 6f], the caspase-8 activation result in data set [1] was “less activated”. Also, the “increase of caspase-3/7 and caspase-9 activities compared with control” value in data set [1] was “approximately three-fold”. Further, the IC50 in data set [2] was 1.6 ± 0.6 µM; in data set [4], 1.6 ± 1 µM; in data set [5], 1.5 to 4.5 µM. Moreover, in data set [3], the “cytotoxicity against proliferating and quiescent lymphocytes (PBMC) versus U-937” value was “lower cytotoxicity”.

Take `O=C(/C=C/c1ccc(N=C(Nc2ccccc2)N2CCCCC2)cc1)c1c(O)cccc1OCc1ccccc1` [Compound 6i]: in data set [1], the caspase-8 activation entry is reported as “less activated”; the “increase of caspase-3/7 and caspase-9 activities compared with control” value was “two-fold”. The “cytotoxicity against proliferating and quiescent lymphocytes (PBMC) versus U-937” value in data set [3] was “lower cytotoxicity”.
